Assay results: article PMC3601546 (Bioorganic & medicinal chemistry letters, 2012)

test system: Ricerca panel of 35 therapeutically relevant off-target proteins including GPCRs, enzymes and ion channels; assay: Selectivity profile against Ricerca panel of 35 off-target proteins; conditions: at 10 μM

Row | stimulation/inhibition against the pool of tested off-targets | Structure (SMILES)
1 | < 50% | COc1ccc(Oc2c(Cl)cnn(-c3cc(C)cc(C)c3)c2=O)cc1 [1z, 5-chloro-2-(3,5-dimethylphenyl)-4-(4-methoxyphenoxy)pyridazin-3(2H)-one]

biological target: T1, human NPBWR1 (Homo sapiens, UniProt P48145); assay: NPBWR1 antagonist calcium release; assay type: cell-based; conditions: not given
T1 sequence (P48145 1-328): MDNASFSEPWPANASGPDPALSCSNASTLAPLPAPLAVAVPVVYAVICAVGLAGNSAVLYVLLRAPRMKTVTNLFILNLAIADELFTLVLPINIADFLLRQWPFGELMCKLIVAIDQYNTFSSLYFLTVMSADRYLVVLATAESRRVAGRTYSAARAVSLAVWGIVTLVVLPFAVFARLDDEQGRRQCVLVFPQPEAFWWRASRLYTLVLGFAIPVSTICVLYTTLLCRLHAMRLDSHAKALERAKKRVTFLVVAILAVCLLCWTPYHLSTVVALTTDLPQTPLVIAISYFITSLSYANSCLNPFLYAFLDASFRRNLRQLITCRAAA

Row | NPBWR1 antagonist activity in words | Structure (SMILES)
2 | drastic loss in potency | COc1ccc(Oc2c(-c3ccccc3)cnn(-c3ccc(C)cc3)c2=O)cc1 [9d]
3 | inactive | COc1ccc(Oc2c(C(=O)O)cnn(-c3ccc(C(C)C)cc3)c2=O)cc1 [9m]
4 | Total loss of potency | COc1ccc(Oc2ccnn(-c3ccc(C(C)C)cc3)c2=O)cc1 [9o]
5 | Total loss of potency | COc1ccc(Oc2c(N)cnn(-c3ccc(C(C)C)cc3)c2=O)cc1 [9p]
6 | Total loss of potency | COc1ccc(Oc2c(NC(C)=O)cnn(-c3ccc(C(C)C)cc3)c2=O)cc1 [9q]
7 | Total loss of activity | COc1ccc(Oc2c(Cl)c(C(=O)O)nn(-c3ccc(C(C)C)cc3)c2=O)cc1 [9t]

same assay, conditions: ratio of NPBWR1 IC50 vs 1a

Row | fold more potent than the hit 1a | Structure (SMILES)
8 | ~ fourfold | COc1ccc(Oc2c(Cl)cnn(-c3ccc(C)c(C)c3)c2=O)cc1 [1s]
9 | 2- to 3 fold | Cc1ccc(-n2ncc(Cl)c(Oc3ccc(C(F)(F)F)cc3)c2=O)cc1 [6e]

same assay, conditions: ratio of NPBWR1 IC50 vs 1j

Row | fold less potent than 1j | Structure (SMILES)
10 | ~ 18 fold | CC(C)c1ccc(-n2ncc(Cl)c(Oc3ccc(O)cc3)c2=O)cc1 [6i]
11 | ~ 28 fold | COc1ccc(Oc2c(C)cnn(-c3ccc(C(C)C)cc3)c2=O)cc1 [9g]
12 | ~ 21 fold | COc1ccc(Oc2c(CO)cnn(-c3ccc(C(C)C)cc3)c2=O)cc1 [9k]
13 | 13 fold | CCOC(=O)c1nn(-c2ccc(C(C)C)cc2)c(=O)c(Oc2ccc(OC)cc2)c1Cl [9s]

The remaining lines, values behind:

Row | Structure (SMILES) | fold less potent than 1j
14 | CC(C)c1ccc(-n2ncc(Cl)c(Oc3ccc(OC(F)(F)F)cc3)c2=O)cc1 [6j] | ~45 fold
15 | CC(C)c1ccc(-n2ncc(Cl)c(Oc3ccc(C(=O)CN)cc3)c2=O)cc1 [6l] | eightfold
16 | C=Cc1cnn(-c2ccc(C(C)C)cc2)c(=O)c1Oc1ccc(OC)cc1 [9h] | ~9 fold
17 | COc1ccc(Oc2c(C=O)cnn(-c3ccc(C(C)C)cc3)c2=O)cc1 [9j] | ~ 23 fold
18 | COc1ccc(Oc2c(C#N)cnn(-c3ccc(C(C)C)cc3)c2=O)cc1 [9l] | ~ 15 fold
19 | COC(=O)c1cnn(-c2ccc(C(C)C)cc2)c(=O)c1Oc1ccc(OC)cc1 [9n] | 10 fold
20 | COC(=O)c1nn(-c2ccc(C(C)C)cc2)c(=O)c(Oc2ccc(OC)cc2)c1Cl [9u] | 13 fold

same assay, conditions: ratio of NPBWR1 IC50 vs 1t

Row | fold decrease in potency compared to 1t | Structure (SMILES)
21 | ~ 3.5 fold | COc1ccc(Oc2c(Cl)c(OC)nn(-c3cccc(C)c3)c2=O)cc1 [9r]

same assay, conditions: ratio of NPBWR1 IC50 vs 9a

Row | fold loss in potency compared to 9a | Structure (SMILES)
22 | ~ eightfold | COc1ccc(Oc2c(C3CC3)cnn(-c3ccc(C)cc3)c2=O)cc1 [9f]

test system: HT29 cells; assay: Viability assay on HT29 cells; assay type: cell-based; conditions: final tested concentration of 20 μM

Row | Structure (SMILES) | cytotoxicity in viability assay
23 | COc1ccc(Oc2c(Cl)cnn(-c3cc(C)cc(C)c3)c2=O)cc1 [1z, 5-chloro-2-(3,5-dimethylphenyl)-4-(4-methoxyphenoxy)pyridazin-3(2H)-one] | non cytotoxic
